Laboratory results published in ChEMBL document CHEMBL1201862, “PubChem BioAssay data set” (2004).
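Exposure lasted 48 hours, with cells grown in 96-well plates and compounds tested at five concentrations. At the GI50, growth is halved.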 Active and inactive are the calls of the source. Cut-off read from the data, not from the text of the source: active = GI50 up to about 1.1 µM and inactive = higher. Square brackets hold non-standard residues; d marks the D form. Peptide text beside a SMILES is read from it. * marks the point of attachment. X26 = COC1=CC(=O)N(C(=O)[C@@H](O*)C(C)C)[C@H]1Cc1ccccc1; Bn2Val = CC(C)[C@@H](C(=O)*)N(Cc1ccccc1)Cc1ccccc1; NMeV = CN[C@H](C(=O)O)C(C)C; dNMeA = CN[C@H](C)C(=O)O

Key:
Test in all cases: inhibition of tumour cell growth, NCI panel, 48 h
[1] = system: IGROV-1
[2] = system: M14
[3] = system: OVCAR-8
[4] = system: DU-145
[5] = system: CAKI-1
[6] = system: NCI-H23
[7] = system: SK-MEL-5
[8] = system: OVCAR-4
[9] = system: MDA-MB-231
[10] = system: MCF7
[11] = system: SW-620
[12] = system: HCC 2998
[13] = system: EKVX
[14] = system: CCRF-CEM
[15] = system: HCT-15
[16] = system: TK-10
[17] = system: U-251
[18] = system: K562
[19] = system: UO-31

SMILES | GI50 [1] | GI50 [2] | GI50 [3] | GI50 [4] | GI50 [5] | GI50 [6] | GI50 [7] | GI50 [8] | GI50 [9] | GI50 [10] | GI50 [11] | GI50 [12] | GI50 [13] | GI50 [14] | GI50 [15] | GI50 [16] | GI50 [17] | GI50 [18] | GI50 [19]
CCOC(=O)c1ccc(/N=C2\Sc3nc4ccccc4n3\C2=N\c2ccc(C(=O)OCC)cc2)cc1 | 19.5 µM (inactive) | 16 µM (inactive) | 29.4 µM (inactive) | 28.9 µM (inactive) | 23 µM (inactive) | 22.6 µM (inactive) | 25.9 µM (inactive) | 24.3 µM (inactive) | 22.5 µM (inactive) | 8.83 µM (inactive) | 21.5 µM (inactive) | 41.8 µM (inactive) | 42.6 µM (inactive) | > 100 µM (inactive) | 51.4 µM | 17.3 µM (inactive) |  |  | 
O=[N+]([O-])/C=C\c1c[nH]c2ccc(OCc3ccccc3)cc12 | 4.15 µM (inactive) | 2.18 µM (inactive) | 4.27 µM (inactive) | 7.46 µM (inactive) | 20.6 µM (inactive) | 3.4 µM (inactive) | 5.06 µM (inactive) |  | 3.57 µM (inactive) | 6.49 µM (inactive) | 2.51 µM (inactive) | 1.67 µM (inactive) | 13.4 µM (inactive) | 4.26 µM (inactive) |  | 10.4 µM (inactive) | 5.85 µM (inactive) | 2.55 µM (inactive) | 3.58 µM (inactive)
O=C(CNc1cccc([N+](=O)[O-])c1)Nn1c(-c2ccccc2)nc2ccccc2c1=O | 0.201 µM (active) |  | 1.59 µM (inactive) | 2.38 µM (inactive) |  | 0.653 µM (active) | 1.02 µM (active) | 2.18 µM (inactive) | 0.776 µM (active) | 0.389 µM (active) | 0.33 µM (active) | 1.49 µM (inactive) | 2.41 µM (inactive) | 0.316 µM (active) | 0.419 µM | 0.363 µM (active) | 1.05 µM (active) | 0.528 µM (active) | 0.743 µM (active)
c1cc(NC2=NCCO2)c2c(c1)OCO2 | > 100 µM (inactive) | > 100 µM (inactive) | > 100 µM (inactive) | > 100 µM (inactive) | > 100 µM (inactive) | > 100 µM (inactive) | > 100 µM (inactive) | > 100 µM (inactive) | > 100 µM (inactive) | > 100 µM (inactive) | > 100 µM (inactive) | > 100 µM (inactive) | > 100 µM (inactive) | > 100 µM (inactive) | > 100 µM |  | > 100 µM (inactive) | > 100 µM (inactive) | > 100 µM (inactive)
COC1=CC(=O)N(C(=O)[C@@H](OC(=O)[C@@H](C)N(C)C(=O)[C@@H]2CCCN2C(=O)[C@H](C(C)C)N(C)C(=O)[C@@H](NC(=O)[C@H](C(C)C)N(Cc2ccccc2)Cc2ccccc2)C(C)C)C(C)C)[C@H]1Cc1ccccc1 (Bn2Val-V[NMeV]P[dNMeA]-X26) | > 100 µM (inactive) | 68.1 µM (inactive) | > 100 µM (inactive) | > 100 µM (inactive) | > 100 µM (inactive) |  | 23.9 µM (inactive) | > 100 µM (inactive) | 13.4 µM (inactive) | 8.65 µM (inactive) | > 100 µM (inactive) | > 100 µM (inactive) | > 44.5 µM (inactive) | > 100 µM (inactive) | > 100 µM | > 100 µM (inactive) | 11.4 µM (inactive) | 6.78 µM (inactive) | 6.44 µM (inactive)
Cc1[nH]c(=O)[nH]c(=O)c1N(CCF)CCCl [FLUORODOPAN] | 441 µM (inactive) | 381 µM (inactive) |  | 582 µM (inactive) | 181 µM (inactive) | 348 µM (inactive) | 196 µM (inactive) | 353 µM (inactive) | 362 µM (inactive) | 256 µM (inactive) |  | 353 µM (inactive) |  | 57.4 µM (inactive) |  | 495 µM (inactive) | 369 µM (inactive) | 244 µM (inactive) | 
